Columns and labels:
[1] = test system: C57BL/6 and p47phox-/- mice infected intranasally with A. fumigatus conidia; experiment: Lung inflammation model: C57BL/6 and p47phox-/- mice infected intranasally with A. fumigatus; format: in vivo
Procedure: In vivo models mimicking human pathology such as lung and gut inflammation were prepared. A model of lung inflammation was tested using C57BL/6 and p47phox-/- mice. The mice were infected with A. fumigatus intranasally and treated them with Tβ4 for 7 consecutive days starting a week after the infection. LC3-II (FIG. 1F) and DAPK1 (FIG. 1G) expression were both defective in p47phox-/- mice, but restored by Tβ4 and ablated (LC3-II) upon siTβ4 (FIGS. 10A and 10B). In addition, gut inflammation was tested using the same mouse model. Acute colitis in p47phox-/- mice was initiated by administering […] in drinking water for 7 days followed by 7 days of DSS-free autoclaved water. Subsequently, Tβ4 was therapeutically administered daily for 7 days, after DSS treatment, at the time at which mice started to lose weight. Consistent with previous findings (de Luca et al., 2014), LC3-II (FIG. 1H) and DAPK1 (FIG. 1I) expression were both defective in the colon ofp47phox-/- mice with colitis as opposed to WT mice but restored upon treatment with T134 (FIGS. 1H and 1I). DAPK1 expression in colon lysates of C57BL/6 and p47^phox-/- mice subjected to DSS-induced colitis for a week and treated intraperitoneally with 5 mg/kg Tβ4 for 7 consecutive days after DSS treatment, n=6-10 mice per group. Data are presented as mean ±SD and are representative of two experiments. Mice were categorized as Naive (uninfected or untreated mice) or None (infected mice). For immunoblotting, normalization was performed on mouse β-actin or Gapdh and corresponding pixel density or ratio is depicted. For immunofluorescence, nuclei were counterstained with DAPI. Photographs were taken with a high-resolution microscope (Olympus BX51), 40× and 100× magnification. LC3 mean fluorescence intensity (MFI) was measured with the ImageJ software. In FIGS. 1F-1H, n=6-10 mice per group. Data are presented as mean ±SD and are representative of two experiments. Naïve, uninfected or untreated mice. None, infected mice.
Viable conidia from the A. fumigatus Af293 strain were obtained as described (De Luca et al., 2012). Mice were anesthetized in a plastic cage by inhalation of 3% isoflurane (Forane Abbot) in oxygen before intranasal instillation of 2×10^7 resting conidia/20 μl saline. For survival curves, p47^phox-/- mice were challenged with […] conidia/20 μl saline. Tβ4 was administered intraperitoneally (i.p.) at the dose of 5 mg/kg at an effective dose as described (Badamchian et al., Thymosin beta(4) reduces lethality and down-regulates inflammatory mediators in endotoxin-induced septic shock. Int Immunopharmacol, 2003 3(8): p. 1225-33), every day in concomitance with (days 0→7) or after (days 7→14) infection. DMOG (Merck Millipore) was administered i.p. at the dose of 8 mg/mouse concomitantly to the infection. For Hif1a silencing, each mouse received intranasal administration of 10 mg/kg unmodified siRNA [Duplex name mm.Ri.Hif1a.13.1 (IDT); 5′-[…]-3′; 3′-[…] -5′] and Tmsb4x silencing [Duplex name mm.Ri.Tmsb4x.13.1; 5′-[…]-3′; 3′-[…] -5′], or equivalent dose of nonspecific control siRNA duplex in a volume of 20 μl of duplex buffer (IDT). Intranasal siRNA was given once the day before infection and 1, 3 and 5 days after infection (Iannitti et al., 2013 Hypoxia promotes danger-mediated inflammation via receptor for advanced glycation end products in cystic fibrosis. Am J Respir Crit Care Med 188:1338-1350). It is known that lung-specific siRNA delivery can be achieved by intranasal administration without the use of viral vectors or transfection agents in vivo (Iannitti et al., 2013 Th17/Treg imbalance in murine cystic fibrosis is linked to indoleamine 2,3-dioxygenase deficiency but corrected by kynurenines. Am J Respir Crit Care Med 187:609-620). Mice were sacrificed 7 or 14 days post infection. Fungal burden was determined by qPCR and expressed as conidial equivalents (CE). Lung tissue was aseptically removed and homogenized in 3 ml of sterile saline. […]

[2] = test system: alveolar macrophages from lung of C57BL/6 and p47phox-/- mice; experiment: ROS production by DHR in alveolar macrophages, with or without MitoTEMPO; format: cell-based; details: 100 nM 1 hour, conidia 2 hours, absence or presence of MitoTEMPO (FIGS. 8C, 8D)
Procedure: Experiments were also conducted to determine whether Tβ4 increases mitochondrial redox balance. p47phox-/- mice were infected intranasally with A. fumigatus and treated with 5 mg/kg Tβ4. HIF-1α-dependent glycolytic genes were not increased by Tβ4 treatment (FIG. 8A). In contrast, Irg1 expression was increased in mice treated with Tβ4 (FIG. 8B). In addition, ROS production by DHR was measured in C57BL/6 and p47phox-/- mice pre-exposed to 100 nM T134 for 1 hour and pulsed with A. fumigatus conidia for additional 2 hours, in the absence (FIG. 8C) or presence (FIG. 8D) of MitoTEMPO. We could detect the production of mitochondrial ROS induced by Tβ4, thus supporting the hypothesis that mtROS might mediate the regulation of HIF-1α levels by Tβ4. 10 ng/ml PMA was used as a positive control. Fluorescence was measured by a Tecan Infinite 200 fluorimeter. Data are presented as mean ±SD and are representative of two independent experiments. […] RFU, relative fluorescence units.
Alveolar macrophages from lung of C57BL/6 and p47phox-/- uninfected mice were assessed for intracellular ROS production by dihydrorhodamine 123 (DHR) evaluation. […] The DHR was measured by the multifunctional microplate reader Tecan Infinite 200 (Tecan) at different time points. The results expressed as relative fluorescence units (RFU) are the means ±SD of at least two experiments in duplicate.

[3] = following Tβ4 treatment, thoracic lymph nodes, lung homogenates
[4] = lung homogenates, ELISA (FIG. 4E)

## Thymosin β4 [Tβ4]
[1]; CGD (p47phox-/-) mice, Tβ4 7 days concomitantly to infection (FIG. 2E, 2F)
  HIF-1α protein in lung: restored
[1]; both types of mice (C57BL/6 and p47phox-/-), 5 mg/kg i.p. (FIG. 4A)
  fungal growth in the lung: reduced
[1]; [3]
  pathogenic Th2/Th17/Th9 cell responses: down-regulated
  protective Th1/Treg cell responses: promoted
[1]; infected mice (FIG. 4D)
  NLRP3 expression in lung: down-regulated
[1]; [4]
  IFNy production: reduced
  IL-1β production: reduced
  IL-17A production: reduced
  TNF-α production: reduced
[1]; lungs of Aspergillus-infected mice (FIG. 3C)
  expression of genes of angiogenic signaling (Angpt2, Tie2, Vegfa), remodeling (Fgf2), hormonal regulation (Epo), cell migration (Cxcr4): upregulated
[1]; p47phox-/- mice after Tβ4 administration (FIG. 4C)
  gross lung pathology and histological examination: No signs of inflammatory lung injury and granuloma formation
[1]; p47phox-/- mice, 5 mg/kg Tβ4 (FIG. 8A)
  HIF-1α-dependent glycolytic genes: not increased
[1]; p47phox-/- mice, 5 mg/kg Tβ4 (FIG. 8B)
  Irg1 expression: increased
[1]; p47phox-/- mice, 5 mg/kg i.p. 7 consecutive days starting a week after infection (FIG. 1F)
  LC3-II expression in lung: restored
[1]; p47phox-/- mice, 5 mg/kg i.p. 7 consecutive days starting a week after infection (FIG. 1G)
  DAPK1 expression in lung: restored
[2]
  production of mitochondrial ROS (DHR): induced

— patent US20220241378A1, “COMPOSITIONS AND METHODS FOR TREATMENT OF CHRONIC GRANULOMATOUS DISEASE” (priority 2019, published 2022)
